How the values were obtained:
[1] = test system: field violet; experiment: Test D preemergence; format: in vivo, Viola arvensis; conditions: scale 0 to 100
Source text: (§1) Seeds of plant species selected from bluegrass (annual bluegrass, Poa annua), blackgrass (Alopecurus myosuroides), canarygrass (littleseed canarygrass, Phalaris minor), chickweed (common chickweed, Stellaria media), galium (catchweed bedstraw, Galium aparine), bromegrass, downy (downy bromegrass, Bromus tectorum), field poppy (Papaver rhoeas), field violet (Viola arvensis), foxtail, green (green foxtail, Setaria viridis), deadnettle (henbit deadnettle, Lamium amplexicaule), ryegrass, Italian (Italian ryegrass, Lolium multiflorum), kochia (Kochia scoparia), lambsquarters (Chenopodium album), oilseed rape (Brassica napus), pigweed (redroot pigweed, Amaranthus retroflexus), chamomile (scentless chamomile, Matricaria inodora), speedwell (bird's-eye speedwell, Veronica persica), barley, spring (spring barley, Hordeum vulgare), wheat, spring (spring wheat, Triticum aestivum), buckwheat, wild (wild buckwheat, Polygonum convolvulus), mustard, wild (wild mustard, Sinapis arvensis), oat, wild (wild oat, Avena fatua), radish, wild (wild radish, Raphanus raphanistrum), windgrass (Apera spica-venti), Russian thistle (Salsola kali), barley, winter (winter barley, Hordeum vulgare), and wheat, winter (winter wheat, Triticum aestivum) were planted into a silt loam soil and treated preemergence with test chemicals formulated in a non-phytotoxic solvent mixture which included a surfactant.
(§2) At the same time, these species were planted in pots containing Redi-Earth® planting medium (Scotts Company, 14111 Scottslawn Road, Marysville, Ohio 43041) comprising spaghnum peat moss, vermiculite, wetting agent and starter nutrients and treated with postemergence applications of the test chemicals formulated in the same manner. Plants ranged in height from 2 to 18 cm (1- to 4-leaf stage). Treated plants and controls were maintained in a controlled growth environment for 14 to 21 days after which time all species were compared to controls and visually evaluated. Plant response ratings, summarized in Table D, are based on a scale of 0 to 100 where 0 is no effect and 100 is complete control. A dash (-) response means no test result.

[2] = test system: speedwell; experiment: Test D preemergence; format: in vivo, Veronica persica; conditions: scale 0 to 100
Source text: as §1, §2

[3] = test system: blackgrass; experiment: Test D postemergence; format: in vivo, Alopecurus myosuroides; conditions: scale 0 to 100
Procedure, shortened: (§3)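 Whole-plant herbicidal activity; pre- and postemergence sprays. Soil: silt loam (pre); peat/vermiculite medium (post, 1–4 leaf). Assessment: 14–21 days, visual, 0 = no effect, 100 = complete control.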

[4] = test system: canarygrass; experiment: Test D postemergence; format: in vivo, Phalaris minor; conditions: scale 0 to 100
Source text: as §1, §2

[5] = test system: field violet; experiment: Test D postemergence; format: in vivo, Viola arvensis; conditions: scale 0 to 100
Source text: as §1, §2

[6] = test system: lambsquarters; experiment: Test D postemergence; format: in vivo, Chenopodium album; conditions: scale 0 to 100
Source text: as §1, §2

[7] = test system: oilseed rape; experiment: Test D postemergence; format: in vivo, Brassica napus; conditions: scale 0 to 100
Source text: as §1, §2

[8] = test system: chamomile; experiment: Test D postemergence; format: in vivo, Matricaria inodora; conditions: scale 0 to 100
Procedure, shortened: as §3

[9] = test system: barley, spring; experiment: Test D postemergence; format: in vivo, Hordeum vulgare; conditions: scale 0 to 100
Procedure, shortened: as §3

[10] = test system: barley, winter; experiment: Test D postemergence; format: in vivo, Hordeum vulgare; conditions: scale 0 to 100
Procedure, shortened: as §3

[11] = test system: mustard, wild; experiment: Test D postemergence; format: in vivo, Sinapis arvensis; conditions: scale 0 to 100
Procedure, shortened: as §3

[12] = test system: crabgrass, Brazil; experiment: Test F preemergence; format: in vivo, Digitaria horizontalis
Procedure, shortened: (§4)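 Plant response is scored by eye relative to controls on a 0 to 100 scale, where 100 means complete control. Preemergence applications were made to seeded silt loam; postemergence ones to seedlings 2 to 18 cm high. Greenhouse holding time was 14 to 21 days.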

[13] = test system: barnyardgrass; experiment: Test F preemergence; format: in vivo, Echinochloa crus-galli
Procedure, shortened: as §4

[14] = test system: morningglory; experiment: Test F preemergence; format: in vivo, Ipomoea coccinea
Source text: Seeds of plant species selected from corn (Zea mays), soybean (Glycine max), velvetleaf (Abutilon theophrasti), lambsquarters (Chenopodium album), wild poinsettia (Euphorbia heterophylla), pigweed, palmer (palmer pigweed, Amaranthus palmeri), common waterhemp (Amaranthus rudis), surinam grass (Brachiaria decumbens), large crabgrass (Digitaria sanguinalis), crabgrass, Brazil (Brazilian crabgrass, Digitaria horizontalis), fall panicum (Panicum dichotomiflorum), giant foxtail (Setaria faberii), green foxtail (Setaria viridis), goosegrass (Eleusine indica), johnsongrass (Sorghum halepense), common ragweed (Ambrosia elation), barnyardgrass (Echinochloa crus-galli), southern sandbur (Cenchrus echinatus), arrowleaf sida (Sida rhombifolia), Italian ryegrass (Lolium multiflorum), dayflower, VA (Virginia (VA) dayflower, Commelina virginica), field bindweed (Convolvulus arvensis), cocklebur (common cocklebur, Xanthium strumarium), morningglory (Ipomoea coccinea), nightshade (eastern black nightshade, Solanum ptycanthum), kochia (Kochia scoparia), yellow nutsedge (Cyperus esculentus), and hairy beggarticks (Bidens pilosa), were planted into a silt loam soil and treated preemergence with test chemicals formulated in a non-phytotoxic solvent mixture which included a surfactant.
At the same time, plants from these crop and weed species and also horseweed (Canada horseweed, Conyza canadensis), smartweed (ladysthumb smartweed, Polygonum persicaria), waterhemp_RES1, (ALS & Triazine resistant common waterhemp, Amaranthus rudis), and waterhemp_RES2, (ALS & HPPD resistant common waterhemp, Amaranthus rudis) were treated with postemergence applications of test chemicals formulated in the same manner. Plants ranged in height from 2 to 18 cm for postemergence treatments (1- to 4-leaf stage). Treated plants and controls were maintained in a greenhouse for 14 to 21 days, after which time all species were compared to controls and visually evaluated. Plant response ratings, summarized in Table F, are based on a scale of 0 to 100 where 0 is no effect and 100 is complete control. A dash (-) response means no test result.

[15] = Preemergence, 31 g ai/ha, scale 0 to 100
[16] = Preemergence, 62 g ai/ha, scale 0 to 100
[17] = Preemergence, 125 g ai/ha, scale 0 to 100
[18] = preemergence, 8 g ai/ha, scale 0 to 100, 100 is complete control
[19] = preemergence, 16 g ai/ha, scale 0 to 100, 100 is complete control

CCc1cc(C(=O)NCC(F)(F)F)nn1Cc1ccnc(C(F)(F)F)c1 [Compound 78, 5-ethyl-N-(2,2,2-trifluoroethyl)-1-[[(2-trifluoromethyl)-4-pyridinyl]methyl]-1H-pyrazole-3-carboxamide] was tested, and the “Plant response rating, Field Violet” value ([1]; 31 g ai/ha) was 100, the “Plant response rating, Field Violet” value ([1]; 62 g ai/ha) was 100 and the “Plant response rating, Field Violet” value ([1]; 125 g ai/ha) was 100. For the same compound, the “Plant response rating, Field Violet” value ([1]; 250 g ai/ha) was 100, the “Plant response rating, Speedwell” value ([2]; 31 g ai/ha) was 100 and the “Plant response rating, Speedwell” value ([2]; 62 g ai/ha) was 100. The “Plant response rating, Speedwell” value ([2]; 125 g ai/ha) was 100, the “Plant response rating, Speedwell” value ([2]; 250 g ai/ha) was 100 and the “Blackgrass plant response rating” value ([3]; Postemergence, 31 g ai/ha) was 5. For the same compound, the “Blackgrass plant response rating” value ([3]; Postemergence, 125 g ai/ha) was 30, the “Blackgrass plant response rating” value ([3]; Postemergence, 250 g ai/ha) was 65 and the “Blackgrass plant response rating” value ([3]; postemergence, 62 g ai/ha) was 10. For the same compound, the “Canarygrass plant response rating” value ([4]; Postemergence, 31 g ai/ha) was 5, the “Canarygrass plant response rating” value ([4]; Postemergence, 125 g ai/ha) was 15 and the “Canarygrass plant response rating” value ([4]; Postemergence, 250 g ai/ha) was 25. The “Canarygrass plant response rating” value ([4]; postemergence, 62 g ai/ha) was 10, the “Field Violet plant response rating” value ([5]; Postemergence, 31 g ai/ha) was 30 and the “Field Violet plant response rating” value ([5]; Postemergence, 125 g ai/ha) was 60. The “Field Violet plant response rating” value ([5]; Postemergence, 250 g ai/ha) was 65, the “Field Violet plant response rating” value ([5]; postemergence, 62 g ai/ha) was 40 and the “Lambsquarters plant response rating” value ([6]; Postemergence, 31 g ai/ha) was 20. The “Lambsquarters plant response rating” value ([6]; Postemergence, 125 g ai/ha) was 80, the “Lambsquarters plant response rating” value ([6]; Postemergence, 250 g ai/ha) was 80 and the “Lambsquarters plant response rating” value ([6]; postemergence, 62 g ai/ha) was 60. The “Oilseed Rape plant response rating” value ([7]; Postemergence, 31 g ai/ha) was 35, the “Oilseed Rape plant response rating” value ([7]; Postemergence, 125 g ai/ha) was 60 and the “Oilseed Rape plant response rating” value ([7]; Postemergence, 250 g ai/ha) was 80. The “Oilseed Rape plant response rating” value ([7]; postemergence, 62 g ai/ha) was 50, the “Chamomile plant response rating” value ([8]; Postemergence, 31 g ai/ha) was 30 and the “Chamomile plant response rating” value ([8]; Postemergence, 125 g ai/ha) was 65. The “Chamomile plant response rating” value ([8]; Postemergence, 250 g ai/ha) was 75, the “Chamomile plant response rating” value ([8]; postemergence, 62 g ai/ha) was 50 and the “Barley, Spring plant response rating” value ([9]; Postemergence, 31 g ai/ha) was 0. The “Barley, Spring plant response rating” value ([9]; Postemergence, 125 g ai/ha) was 10, the “Barley, Spring plant response rating” value ([9]; Postemergence, 250 g ai/ha) was 30 and the “Barley, Spring plant response rating” value ([9]; postemergence, 62 g ai/ha) was 0. The “Barley, Winter plant response rating” value ([10]; Postemergence, 31 g ai/ha) was 5, the “Barley, Winter plant response rating” value ([10]; Postemergence, 125 g ai/ha) was 15 and the “Barley, Winter plant response rating” value ([10]; Postemergence, 250 g ai/ha) was 25. The “Barley, Winter plant response rating” value ([10]; postemergence, 62 g ai/ha) was 10, the “Mustard, Wild plant response rating” value ([11]; Postemergence, 31 g ai/ha) was 40 and the “Mustard, Wild plant response rating” value ([11]; Postemergence, 125 g ai/ha) was 90. For the same compound, the “Mustard, Wild plant response rating” value ([11]; Postemergence, 250 g ai/ha) was 90, the “Mustard, Wild plant response rating” value ([11]; postemergence, 62 g ai/ha) was 70 and the “Plant response rating, Crabgrass, Brazil” value [12, 15] was 100. The “Plant response rating, Crabgrass, Brazil” value [12, 16] was 100, the “Plant response rating, Crabgrass, Brazil” value [12, 17] was 100 and the “Plant response rating, Crabgrass, Brazil” value [12, 18] was 30. The “Plant response rating, Crabgrass, Brazil” value [12, 19] was 70, the “Plant response rating, Barnyardgrass” value [13, 15] was 35 and the “Plant response rating, Barnyardgrass” value [13, 16] was 98. For the same compound, the “Plant response rating, Barnyardgrass” value [13, 17] was 100, the “Plant response rating, Barnyardgrass” value [13, 18] was 0 and the “Plant response rating, Barnyardgrass” value [13, 19] was 25. The “Plant response rating, Morningglory” value [14, 15] was 100, the “Plant response rating, Morningglory” value [14, 16] was 90 and the “Plant response rating, Morningglory” value [14, 17] was 100. For the same compound, the “Plant response rating, Morningglory” value [14, 18] was 0 and the “Plant response rating, Morningglory” value [14, 19] was 40.
